Data published in US20210236476A1, “METHODS OF TREATING CANCER WITH SMALL MOLECULE PD-L1 INHIBITORS” (CHEMOCENTRYX, INC., priority 2018, published 2021).

Target: T1, human PD-L1 / human PD-1 interaction (Homo sapiens, UniProt Q9NZQ7)
T1 construct: purchased R&D (PD-L1); ACRO Biosystems (PD-1, biotin)
Assay: ELISA of PD-1/PD-L1 interaction
Format: binding
Method: The activity of Compound 1.041 was assessed with an ELISA assay assessing the direct binding of recombinant PD-1 and PD-L1 proteins (FIG. 1A), a dimerization ELISA assay assessing the direct binding/dimerization of recombinant PD-L1 proteins (FIG. 1B), a cell based assay measuring the downstream signaling following the interaction of PD-1 and PD-L1 using a Luciferase reporter assay with cell lines overexpressing PD-1 and PD-L1 (FIG. 1C), and a mixed lymphocyte reaction assay measuring the functional outcome of upregulation of IFNg secretion, using allogenic primary human immune cells (FIG. 1D). Briefly, the mixed lymophocyte reaction assay was performed as follows: Dendritic cells and CD4+T Cells from unmatched donors were cultured together for 5 days in 96 well-flat bottom plates. Test compound was added as indicated at starting concentration of 1 μM with 1:4 dilutions with DMSO. Supernatants were harvested after 5 days of incubation and detection of human IFNg was performed by ELISA. […]
96 Well plates were coated with 1 μg/mL of human PD-L1 (obtained from R&D) in
PBS overnight at 4° C. The wells were then blocked with 2% BSA in PBS (WN) with 0.05% TWEEN-20 for 1 hour at 37° C. The plates were washed 3 times with PBS/0.05% TWEEN-20 and the compounds were serial diluted (1:5) in dilution medium and added to the ELISA plates. Human PD-1 and biotin 0.3μg/mL (ACRO Biosystems) were added and incubated for 1 hour at 37° C. then washed 3 times with PBS/0.05% TWEEN-20. A second block was performed with 2% BSA in PBS (WN)/0.05% TWEEN-20 for 10 min at 37° C. and was washed 3 times with PBS/0.05% TWEEN-20. Streptavidin—HRP was added for 1 hour at 37° C. then washed 3 times with PBS/0.05% TWEEN-20. TMB substrate was added and reacted for 20 min at 37° C. A stop solution (2 N aqueous H2SO4) was added. The absorbance was read at 450 nm using a micro-plate spectrophotometer.

T1 sequence (Q9NZQ7 19-239 limits assumed): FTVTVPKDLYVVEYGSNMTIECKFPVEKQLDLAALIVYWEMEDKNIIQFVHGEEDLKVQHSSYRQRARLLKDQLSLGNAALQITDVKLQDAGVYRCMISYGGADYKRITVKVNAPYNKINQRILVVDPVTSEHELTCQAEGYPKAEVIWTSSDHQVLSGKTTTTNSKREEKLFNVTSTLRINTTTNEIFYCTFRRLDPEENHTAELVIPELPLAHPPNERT

Row | IC50 | SMILES
1 | < 5 nM | Cc1c(OCCCN2CCC[C@@H](O)C2)cccc1-c1cccc2c1CC[C@@H]2Oc1cc(OCc2cncc(C#N)c2)c(CN[C@H](C(=O)O)[C@@H](C)O)cc1Cl
2 | < 5 nM | Cc1c(OCCCN2CCC(O)CC2)cccc1-c1cccc2c1CC[C@@H]2Oc1cc(OCc2cc(C#N)cc(C#N)c2)c(CN[C@H](C(=O)O)[C@@H](C)O)cc1Cl
3 | < 5 nM | Cc1c(OCCCN2CCC(C)CC2)cccc1-c1cccc2c1CC[C@@H]2Oc1cc(OCc2cc(C#N)cc(C#N)c2)c(CNC[C@@H]2CCC(=O)N2)cc1Cl
4 | < 5 nM | Cc1c(OCCCN2CCC(O)CC2)cccc1-c1cccc2c1CC[C@@H]2Oc1cc(OCc2cncc(C#N)c2)c(CN(C)[C@H](C(=O)O)[C@@H](C)O)cc1Cl
5 | < 5 nM | Cc1c(OCCCN[C@@H]2CCCC[C@@H]2O)cccc1-c1cccc2c1CC[C@@H]2Oc1cc(OCc2cncc(C#N)c2)c(CN[C@H](C(=O)O)[C@@H](C)O)cc1Cl
6 | < 5 nM | Cc1c(OCCCN2CCC(O)CC2)cccc1-c1cccc2c1CC[C@@H]2Oc1cc(OCc2cncc(C#N)c2)c(CN2CCC(O)CC2)cc1Cl
7 | < 5 nM | Cc1c(OCCCN2CC3(CC(O)C3)C2)cccc1-c1cccc2c1CC[C@@H]2Oc1cc(OCc2cc(C#N)cc(C#N)c2)c(CNC[C@H]2CCC(=O)N2)cc1Cl
8 | < 5 nM | Cc1c(OCCCN2CCC(O)CC2)cccc1-c1cccc2c1CC[C@@H]2Oc1cc(OCc2cncc(C#N)c2)c(CN[C@@](C)(CO)C(=O)O)cc1Cl
9 | < 5 nM | Cc1c(OCCCN2CCCCC2)cccc1-c1cccc2c1CC[C@@H]2Oc1cc(OCc2cc(C#N)cc(C#N)c2)c(CNC[C@H]2CCC(=O)N2)cc1Cl
10 | < 5 nM | Cc1c(OCCCN2CC3(CC(O)C3)C2)cccc1-c1cccc2c1CC[C@@H]2Oc1cc(OCc2cncc(C#N)c2)c(CN[C@H](C(=O)O)[C@@H](C)O)cc1Cl
11 | < 5 nM | Cc1c(OCCCN2CC3(CCC3)C2)cccc1-c1cccc2c1CC[C@@H]2Oc1cc(OCc2cc(C#N)cc(C#N)c2)c(CNC[C@@H]2CCC(=O)N2)cc1Cl
12 | < 5 nM | Cc1c(OCCCN2CCC(O)CC2)cccc1-c1cccc2c1CC[C@H]2Oc1cc(OCc2cncc(C#N)c2)c(CN[C@H](C(=O)O)[C@@H](C)O)cc1Cl
13 | < 5 nM | Cc1c(OCCCN2CCC(F)CC2)cccc1-c1cccc2c1CC[C@@H]2Oc1cc(OCc2cncc(C#N)c2)c(CN[C@H](C(=O)O)[C@@H](C)O)cc1Cl
14 | 5 to 500 nM | Cc1c(OCCCN2CCC(F)(F)CC2)cccc1-c1cccc2c1CC[C@@H]2Oc1cc(OCc2cncc(C#N)c2)c(CN[C@H](C(=O)O)[C@@H](C)O)cc1Cl
15 | < 5 nM | CC(C)(O)[C@H](NCc1cc(Cl)c(O[C@H]2CCc3c(-c4cccc(OCCCN5CCC(F)CC5)c4Cl)cccc32)cc1OCc1cncc(C#N)c1)C(=O)O
16 | 5 to 500 nM | Cc1c(OCCCN2[C@H](C)CCC[C@@H]2C)cccc1-c1cccc2c1CC[C@@H]2Oc1cc(OCc2cc(C#N)cc(C#N)c2)c(CN[C@H]2CCC(=O)NC2)cc1Cl
17 | < 5 nM | Cc1c(OCCCN2CC3(CC(F)C3)C2)cccc1-c1cccc2c1CC[C@@H]2Oc1cc(OCc2cc(C#N)cc(C#N)c2)c(CN[C@H]2CCC(=O)NC2)cc1Cl
18 | < 5 nM | Cc1c(OCCCN2CCC(F)CC2)cccc1-c1cccc2c1CC[C@@H]2Oc1cc(OCc2cc(C#N)cc(C#N)c2)c(CN[C@H]2CCC[C@@H]2O)cc1Cl
19 | < 5 nM | Cc1c(OCCCN2CCC[C@H]2CO)cccc1-c1cccc2c1CC[C@@H]2Oc1cc(OCc2cncc(C#N)c2)c(CN[C@H](C(=O)O)[C@@H](C)O)cc1Cl
20 | < 5 nM | C[C@@H](O)[C@H](NCc1cc(Cl)c(O[C@H]2CCc3c(-c4cccc(OCCCN5CCC(F)CC5)c4Cl)cccc32)cc1OCc1cncc(C#N)c1)C(=O)NS(C)(=O)=O
21 | < 5 nM | Cc1c(OCCCN2CCC(O)CC2)cccc1-c1cccc2c1CC[C@@H]2Oc1cc(OCc2cc(C#N)cc(C#N)c2)c(CN[C@@H](CO)C(=O)O)cc1Cl
22 | < 5 nM | Cc1c(OCCCN2CCC(O)CC2)cccc1-c1cccc2c1CC[C@@H]2Oc1cc(OCc2cncc(C#N)c2)c(CN[C@@H]2CCC[C@H]2O)cc1Cl
23 | < 5 nM | Cc1c(OCCCN2CCC(CO)CC2)cccc1-c1cccc2c1CC[C@@H]2Oc1cc(OCc2cncc(C#N)c2)c(CN[C@H](C(=O)O)[C@@H](C)O)cc1Cl
24 | < 5 nM | Cc1c(OCCCN2CCC(O)CC2)cccc1-c1cccc2c1C[C@H](F)[C@@H]2Oc1cc(OCc2cncc(C#N)c2)c(CN[C@H](C(=O)O)[C@@H](C)O)cc1Cl
25 | < 5 nM | Cc1c(OCCCN2CCC(O)CC2)cccc1-c1cccc2c1CC[C@@H]2Oc1cc(OCc2cncc(C#N)c2)c(CN[C@@H]2CCCC[C@@H]2O)cc1Cl

The next lines start with the compound.

Row | SMILES | IC50
26 | CN1CCC(COc2cccc(-c3cccc4c3CC[C@@H]4Oc3cc(OCc4cncc(C#N)c4)c(CNC[C@@H]4CCC(=O)N4)cc3Cl)c2Cl)C1 (stereo partly shown) | < 5 nM
27 | N#Cc1cncc(COc2cc(O[C@H]3CCc4c(-c5cccc(OCCCN6CCC(O)CC6)c5Cl)cccc43)c(Cl)cc2CNC[C@H]2CCC(=O)N2)c1 | < 5 nM
28 | CCOc1cc(O[C@H]2CCc3c(-c4cccc(OCCCN5CCC5(C)C)c4C)cccc32)c(Cl)cc1CNCCC(=O)OC(C)C | 5 to 500 nM
29 | N#Cc1cncc(COc2cc(O[C@H]3CCc4c(-c5cccc(OCCCN6CCC(F)CC6)c5Cl)cccc43)c(Cl)cc2CN[C@@H]2CC[C@H]2O)c1 | < 5 nM
30 | N#Cc1cncc(COc2cc(O[C@H]3CCc4c(-c5cccc(OCCCN6CC7(CC(O)C7)C6)c5Cl)cccc43)c(Cl)cc2CN[C@@H]2CCC[C@H]2O)c1 | < 5 nM
31 | N#Cc1cncc(COc2cc(O[C@H]3CCc4c(-c5cccc(OCCCN6CC(O)C6)c5Cl)cccc43)c(Cl)cc2CN2CC(O)C2)c1 | < 5 nM
32 | N#Cc1cncc(COc2cc(O[C@H]3CCc4c(-c5cccc(OCCCN6CC(O)C6)c5Cl)cccc43)c(Cl)cc2CN2CCC(O)CC2)c1 | < 5 nM
33 | N#Cc1cncc(COc2cc(O[C@H]3CCc4c(-c5cccc(OCCCN6CC(O)C6)c5Cl)cccc43)c(Cl)cc2CN[C@@H]2CCCC[C@@H]2O)c1 | < 5 nM
34 | Cc1c(OCCCN2CCC(F)CC2)cccc1-c1cccc2c1CC[C@@H]2Oc1cc(OCc2cncc(C(N)=O)c2)c(CN(C)CCC(=O)O)cc1Cl | < 5 nM
35 | CCOc1cc(O[C@H]2CCc3c(-c4cccc(OCCCN5CC[C@@H](O)C5)c4C)cccc32)c(Cl)cc1CNC(C)(CO)C(=O)O (stereo partly shown) | < 5 nM
36 | Cc1c(OCCCN2CCC(F)CC2)cccc1-c1cccc2c1CC[C@@H]2Oc1cc(OCc2cncc(C#N)c2)c(CNCC2CCC(=O)N2)cc1Cl (stereo partly shown) | < 5 nM
37 | N#Cc1cncc(COc2cc(O[C@H]3CCc4c(-c5cccc(OCCCN6CC7(CC(F)C7)C6)c5Cl)cccc43)c(Cl)cc2CN[C@@H]2CC[C@H]2O)c1 | < 5 nM
38 | N#Cc1cncc(COc2cc(O[C@H]3CCc4c(-c5cccc(OCCCN6CC7(CC(F)C7)C6)c5Cl)cccc43)c(Cl)cc2CN[C@@H]2CCC[C@@H]2O)c1 | < 5 nM
39 | CC1(O)CN(CCCOc2cccc(-c3cccc4c3CC[C@@H]4Oc3cc(OCc4cncc(C#N)c4)c(CN[C@@](C)(CO)C(=O)O)cc3Cl)c2Cl)C1 | < 5 nM
40 | CCN1CCC(COc2cccc(-c3cccc4c3CC[C@@H]4Oc3cc(OCc4cncc(C#N)c4)c(CN[C@H]4CCC(=O)NC4)cc3Cl)c2Cl)C1 (stereo partly shown) | < 5 nM
41 | N#Cc1cncc(COc2cc(O[C@H]3CCc4c(-c5cccc(OCCCN6CCC(F)CC6)c5Cl)cccc43)c(Cl)cc2CN2CC(C(=O)O)C2)c1 | < 5 nM
42 | CC(C)OC(=O)[C@](C)(CO)NCc1cc(Cl)c(O[C@H]2CCc3c(-c4cccc(OCCCN5CC(O)C5)c4Cl)cccc32)cc1OCc1cncc(C#N)c1 | < 5 nM
43 | CCOc1cc(O[C@H]2CCc3c(-c4cccc(OCCCN5C(C)CC5(C)C)c4C)cccc32)c(Cl)cc1CNC[C@@H]1CCC(=O)N1 (stereo partly shown) | < 5 nM
44 | Cc1c(OCCCN2CCC(O)CC2)cccc1-c1cccc2c1C[C@H](F)[C@@H]2Oc1cc(OCc2cncc(C#N)c2)c(CN[C@@H]2CCCC[C@@H]2O)cc1Cl | < 5 nM
45 | N#Cc1cncc(COc2cc(O[C@H]3CCc4c(-c5cccc(OCCCN6CC7(CC(O)C7)C6)c5Cl)cccc43)c(Cl)cc2CNC[C@@H]2CCC(=O)N2)c1 | < 5 nM
46 | N#Cc1cncc(COc2cc(O[C@H]3CCc4c(-c5cccc(OCCCN6CCC(F)CC6)c5Cl)cccc43)c(Cl)cc2CN[C@@H]2CCOC[C@H]2O)c1 | < 5 nM
47 | N#Cc1cncc(COc2cc(O[C@H]3CCc4c(-c5cccc(OCCCN6CC7(CC(F)C7)C6)c5Cl)cccc43)c(Cl)cc2CNC[C@H]2CCC(=O)N2)c1 | < 5 nM
48 | Cc1c(OCCCN2CC[C@H](F)C2)cccc1-c1cccc2c1CC[C@@H]2Oc1cc(OCc2cncc(C#N)c2)c(CN[C@@H]2CCCC[C@@H]2O)cc1Cl | < 5 nM
49 | CC(C)N1CCC(COc2cccc(-c3cccc4c3CC[C@@H]4Oc3cc(OCc4cncc(C#N)c4)c(CNC[C@@H]4CCC(=O)N4)cc3Cl)c2Cl)C1 (stereo partly shown) | < 5 nM
50 | CCOc1cc(O[C@H]2CCc3c(-c4cccc(OCCCN5CC(O)C5)c4Cl)cccc32)c(Cl)cc1CN[C@@](C)(CO)C(=O)O | < 5 nM
51 | Cc1c(OCCCN2CC(C)(O)C2)cccc1-c1cccc2c1CC[C@@H]2Oc1cc(OCc2cncc(C#N)c2)c(CNCC2CCC(=O)N2)cc1Cl (stereo partly shown) | < 5 nM
52 | C[C@@](CO)(NCc1cc(Cl)c(O[C@@H]2c3cccc(-c4cccc(OCCCN5CC(O)C5)c4Cl)c3C[C@@H]2F)cc1OCc1cc(C#N)cc(C#N)c1)C(=O)O | < 5 nM
